According to US10132796B2, “Method for detecting and quantifying a target molecule in a tissue” (IMABIOTECH, priority 2011, dated 2018):

Experiment: Quantification of propranolol in a treated mouse kidney by MALDI mass spectrometry imaging
Type: in vivo
Settings: mouse treated with 7.5 mg/kg propranolol, sacrificed 20 minutes post-administration, kidney slices 20 μm, calibration curve from reconstituted kidney
Protocol: A mouse kidney treated with 7.5 mg/kg of propranolol, and sacrificed 20 minutes post-administration, is taken.
Three 20 μm thick tissue slices are produced from the kidney and are each deposited on a support (slide ITO).
MALDI DHB matrix (40 mg/ml methanol/TFA 0.1% 1/1) is sprayed using a robotized system (SunCollect) onto the slices.
Each slice is analysed by mass spectrometry imaging, using an Autoflex speed LRF (Bruker, Daltonics). The average intensity of the peaks of the mass spectrum of the propranolol (m/z 260.2) is computed, by once again using a number of ROIs on each slice, all dimensions being the same.
The average intensity value obtained is 19633.3.
The propranolol concentration in the kidney is quantified using the calibration curve equation (FIG. 2), by including the average intensity value obtained on said straight line. The propranolol here is in a concentration of 5.9 μg/g of tissue.

Question: Which “propranolol concentration in the kidney” value does the source give for `CC(C)NCC(O)COc1cccc2ccccc12` (stereo not shown) [propranolol] here?
Answer: 5.9 μg/g of tissue
